Four molecules from ChEMBL document CHEMBL5653615 (J Biol Chem, 2013) can be followed below.

For experiment [1], the target named is Cyclin-dependent kinase 1/cyclin B1 (Homo sapiens) (UniProt P06493+P14635). As to the kind of experiment: Inhibition of human CDK1/cyclin B at 1.82 nM by HotSpot assay relative to control. Type of experiment: protein-complex assay.
In experiment [2] the target is Maternal embryonic leucine zipper kinase (Homo sapiens) (UniProt Q14680). Nature of the experiment: Inhibition of human MELK at 500 nM by HotSpot assay relative to control.
The target of experiment [3] is Rho-associated protein kinase 1 (Homo sapiens) (UniProt Q13464). As to the kind of experiment: Inhibition of human ROCK1 at 500 nM by HotSpot assay relative to control.
The target in experiment [4] is Protein kinase C eta type (Homo sapiens) (UniProt P24723). As to the kind of experiment: Inhibition of human PKCeta at 500 nM by HotSpot assay relative to control.
For experiment [5], the target named is Phosphorylase b kinase gamma catalytic chain, skeletal muscle/heart isoform (Homo sapiens) (UniProt Q16816). Nature of the experiment: Inhibition of human PHKg1 at 500 nM by HotSpot assay relative to control.
The target of experiment [6] is T1, cGMP-dependent protein kinase 1 (Homo sapiens) (UniProt Q13976).
T1 sequence (whole entry): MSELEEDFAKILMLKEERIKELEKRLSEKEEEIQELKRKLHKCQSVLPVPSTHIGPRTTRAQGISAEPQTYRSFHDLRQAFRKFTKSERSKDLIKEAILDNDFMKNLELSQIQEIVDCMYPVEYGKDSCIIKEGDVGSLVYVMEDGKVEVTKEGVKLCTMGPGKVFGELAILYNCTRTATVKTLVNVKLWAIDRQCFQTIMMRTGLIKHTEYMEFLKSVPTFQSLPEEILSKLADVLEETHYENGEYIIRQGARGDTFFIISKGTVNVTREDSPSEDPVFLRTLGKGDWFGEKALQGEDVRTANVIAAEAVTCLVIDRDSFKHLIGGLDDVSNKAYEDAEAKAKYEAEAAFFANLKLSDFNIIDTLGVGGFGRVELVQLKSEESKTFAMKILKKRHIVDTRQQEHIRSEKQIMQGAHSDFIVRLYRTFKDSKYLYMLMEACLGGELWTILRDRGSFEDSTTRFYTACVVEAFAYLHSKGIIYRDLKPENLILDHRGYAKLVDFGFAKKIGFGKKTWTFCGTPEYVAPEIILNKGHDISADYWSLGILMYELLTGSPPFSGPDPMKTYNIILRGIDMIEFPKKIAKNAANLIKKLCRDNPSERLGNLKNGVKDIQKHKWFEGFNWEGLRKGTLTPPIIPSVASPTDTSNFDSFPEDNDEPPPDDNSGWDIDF
Nature of the experiment: Inhibition of human PKG1b at 500 nM by HotSpot assay relative to control.

Experiment [7] has as its target T2, cAMP-dependent protein kinase catalytic subunit PRKX (Homo sapiens) (UniProt P51817).
T2 sequence (whole entry): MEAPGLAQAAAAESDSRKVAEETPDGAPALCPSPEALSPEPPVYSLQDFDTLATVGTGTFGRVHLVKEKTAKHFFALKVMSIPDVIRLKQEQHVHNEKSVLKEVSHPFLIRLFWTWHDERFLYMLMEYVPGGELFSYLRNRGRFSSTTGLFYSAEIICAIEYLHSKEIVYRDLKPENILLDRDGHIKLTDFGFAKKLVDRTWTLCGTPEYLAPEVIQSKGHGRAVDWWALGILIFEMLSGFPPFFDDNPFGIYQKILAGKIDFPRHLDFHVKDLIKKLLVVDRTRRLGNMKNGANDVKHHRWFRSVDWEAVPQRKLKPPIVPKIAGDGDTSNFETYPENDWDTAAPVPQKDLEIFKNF
Nature of the experiment: Inhibition of human PRKX at 500 nM by HotSpot assay relative to control.

Experiment [8] addresses T3, Serine/threonine-protein kinase ULK1 (Homo sapiens) (UniProt O75385).
T3 sequence (whole entry): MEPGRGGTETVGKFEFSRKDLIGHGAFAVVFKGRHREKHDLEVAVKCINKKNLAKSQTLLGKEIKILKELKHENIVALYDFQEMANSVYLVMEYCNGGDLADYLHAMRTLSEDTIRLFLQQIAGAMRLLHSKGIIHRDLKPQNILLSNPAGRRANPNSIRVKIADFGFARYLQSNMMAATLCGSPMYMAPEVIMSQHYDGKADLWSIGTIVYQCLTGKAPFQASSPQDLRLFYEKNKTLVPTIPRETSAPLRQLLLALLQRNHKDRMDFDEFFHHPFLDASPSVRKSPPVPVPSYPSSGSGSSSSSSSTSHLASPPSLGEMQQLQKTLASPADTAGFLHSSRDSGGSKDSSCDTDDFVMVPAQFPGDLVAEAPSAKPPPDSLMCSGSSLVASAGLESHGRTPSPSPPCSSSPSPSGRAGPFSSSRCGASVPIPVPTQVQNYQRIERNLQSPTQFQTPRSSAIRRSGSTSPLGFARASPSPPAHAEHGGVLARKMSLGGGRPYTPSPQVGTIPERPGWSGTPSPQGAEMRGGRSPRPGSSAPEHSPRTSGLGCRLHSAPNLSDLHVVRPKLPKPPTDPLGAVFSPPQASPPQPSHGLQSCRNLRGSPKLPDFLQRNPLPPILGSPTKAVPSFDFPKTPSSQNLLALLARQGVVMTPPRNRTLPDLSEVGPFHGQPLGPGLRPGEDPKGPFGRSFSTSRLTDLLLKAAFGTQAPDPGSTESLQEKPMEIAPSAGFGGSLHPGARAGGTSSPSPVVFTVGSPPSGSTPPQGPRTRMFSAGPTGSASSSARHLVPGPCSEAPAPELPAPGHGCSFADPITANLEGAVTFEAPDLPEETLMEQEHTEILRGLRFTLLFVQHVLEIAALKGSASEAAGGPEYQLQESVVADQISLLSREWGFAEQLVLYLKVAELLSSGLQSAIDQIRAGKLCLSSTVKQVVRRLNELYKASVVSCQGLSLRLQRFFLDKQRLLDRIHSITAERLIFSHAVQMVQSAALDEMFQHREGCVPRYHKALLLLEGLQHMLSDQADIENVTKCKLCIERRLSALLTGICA
As to the kind of experiment: Inhibition of human ULK1 at 500 nM by HotSpot assay relative to control.

The target of experiment [9] is Ribosomal protein S6 kinase beta-1 (Homo sapiens) (UniProt P23443). As to the kind of experiment: Inhibition of human RPS6KB1 at 500 nM by HotSpot assay relative to control.
In experiment [10] the target is Serine/threonine-protein kinase 24 (Homo sapiens) (UniProt Q9Y6E0). As to the kind of experiment: Inhibition of human STK24 at 500 nM by HotSpot assay relative to control.
Experiment [11] addresses Casein kinase I isoform alpha (Homo sapiens) (UniProt P48729). Nature of the experiment: Inhibition of human CK1a1 at 18.6 nM by HotSpot assay relative to control.
The target of experiment [12] is Activated CDC42 kinase 1 (Homo sapiens) (UniProt Q07912). Nature of the experiment: Inhibition of human ACK1 at 18.6 nM by HotSpot assay relative to control.
For experiment [13], the target named is Dual specificity tyrosine-phosphorylation-regulated kinase 1B (Homo sapiens) (UniProt Q9Y463). As to the kind of experiment: Inhibition of human DYRK1B at 18.6 nM by HotSpot assay relative to control.
Chain of Dual specificity tyrosine-phosphorylation-regulated kinase 1B (Homo sapiens) (Q9Y463 whole entry, looked up): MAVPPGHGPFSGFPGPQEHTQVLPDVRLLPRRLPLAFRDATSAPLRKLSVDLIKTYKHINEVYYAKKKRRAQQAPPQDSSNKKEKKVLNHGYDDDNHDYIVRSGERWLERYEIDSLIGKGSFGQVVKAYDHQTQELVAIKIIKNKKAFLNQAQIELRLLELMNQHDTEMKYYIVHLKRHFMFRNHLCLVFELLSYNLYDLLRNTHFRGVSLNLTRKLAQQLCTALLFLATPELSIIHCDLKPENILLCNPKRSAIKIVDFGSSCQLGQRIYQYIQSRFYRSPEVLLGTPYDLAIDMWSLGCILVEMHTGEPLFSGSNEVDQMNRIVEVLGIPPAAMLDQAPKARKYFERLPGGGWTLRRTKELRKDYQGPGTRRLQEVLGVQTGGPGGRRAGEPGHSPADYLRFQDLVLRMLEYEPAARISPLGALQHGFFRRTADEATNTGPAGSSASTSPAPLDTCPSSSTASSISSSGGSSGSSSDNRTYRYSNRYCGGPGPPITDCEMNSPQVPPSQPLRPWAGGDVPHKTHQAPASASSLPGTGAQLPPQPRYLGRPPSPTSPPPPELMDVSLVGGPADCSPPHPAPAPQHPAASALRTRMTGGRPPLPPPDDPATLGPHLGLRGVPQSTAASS

Chain of Ribosomal protein S6 kinase beta-1 (Homo sapiens) (P23443 whole entry, looked up): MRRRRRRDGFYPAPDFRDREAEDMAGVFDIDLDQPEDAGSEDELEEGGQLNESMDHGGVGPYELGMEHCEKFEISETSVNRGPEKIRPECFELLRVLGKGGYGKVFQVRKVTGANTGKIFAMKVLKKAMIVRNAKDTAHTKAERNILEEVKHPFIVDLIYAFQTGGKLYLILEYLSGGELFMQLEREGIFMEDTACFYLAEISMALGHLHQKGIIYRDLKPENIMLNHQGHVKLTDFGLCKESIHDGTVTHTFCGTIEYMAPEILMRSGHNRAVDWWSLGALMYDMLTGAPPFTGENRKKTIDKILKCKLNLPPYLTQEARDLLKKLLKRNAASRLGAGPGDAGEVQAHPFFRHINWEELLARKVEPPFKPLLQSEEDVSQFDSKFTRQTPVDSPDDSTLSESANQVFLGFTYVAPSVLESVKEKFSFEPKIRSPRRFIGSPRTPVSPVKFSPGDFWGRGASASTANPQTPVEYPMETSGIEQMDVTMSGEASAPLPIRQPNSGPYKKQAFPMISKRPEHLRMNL
Chain of Maternal embryonic leucine zipper kinase (Homo sapiens) (Q14680 whole entry, looked up): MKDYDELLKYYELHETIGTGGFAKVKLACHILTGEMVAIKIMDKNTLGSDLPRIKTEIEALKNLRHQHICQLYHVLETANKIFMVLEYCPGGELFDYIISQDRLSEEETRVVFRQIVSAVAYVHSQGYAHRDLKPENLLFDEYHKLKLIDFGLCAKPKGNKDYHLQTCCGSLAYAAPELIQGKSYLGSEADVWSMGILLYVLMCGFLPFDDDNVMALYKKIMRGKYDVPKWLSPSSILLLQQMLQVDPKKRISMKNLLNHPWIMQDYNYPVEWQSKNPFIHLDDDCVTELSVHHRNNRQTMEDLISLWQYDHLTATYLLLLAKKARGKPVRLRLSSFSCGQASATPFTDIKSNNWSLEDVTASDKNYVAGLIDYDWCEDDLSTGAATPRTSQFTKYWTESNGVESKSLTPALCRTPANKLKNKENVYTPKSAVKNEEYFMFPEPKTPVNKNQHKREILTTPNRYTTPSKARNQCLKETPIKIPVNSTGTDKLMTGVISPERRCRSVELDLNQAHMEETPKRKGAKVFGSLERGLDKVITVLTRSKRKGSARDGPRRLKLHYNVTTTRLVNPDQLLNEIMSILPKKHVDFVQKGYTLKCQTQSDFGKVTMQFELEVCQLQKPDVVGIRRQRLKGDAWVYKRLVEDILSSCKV
Chain of Rho-associated protein kinase 1 (Homo sapiens) (Q13464 2-1354 limits assumed): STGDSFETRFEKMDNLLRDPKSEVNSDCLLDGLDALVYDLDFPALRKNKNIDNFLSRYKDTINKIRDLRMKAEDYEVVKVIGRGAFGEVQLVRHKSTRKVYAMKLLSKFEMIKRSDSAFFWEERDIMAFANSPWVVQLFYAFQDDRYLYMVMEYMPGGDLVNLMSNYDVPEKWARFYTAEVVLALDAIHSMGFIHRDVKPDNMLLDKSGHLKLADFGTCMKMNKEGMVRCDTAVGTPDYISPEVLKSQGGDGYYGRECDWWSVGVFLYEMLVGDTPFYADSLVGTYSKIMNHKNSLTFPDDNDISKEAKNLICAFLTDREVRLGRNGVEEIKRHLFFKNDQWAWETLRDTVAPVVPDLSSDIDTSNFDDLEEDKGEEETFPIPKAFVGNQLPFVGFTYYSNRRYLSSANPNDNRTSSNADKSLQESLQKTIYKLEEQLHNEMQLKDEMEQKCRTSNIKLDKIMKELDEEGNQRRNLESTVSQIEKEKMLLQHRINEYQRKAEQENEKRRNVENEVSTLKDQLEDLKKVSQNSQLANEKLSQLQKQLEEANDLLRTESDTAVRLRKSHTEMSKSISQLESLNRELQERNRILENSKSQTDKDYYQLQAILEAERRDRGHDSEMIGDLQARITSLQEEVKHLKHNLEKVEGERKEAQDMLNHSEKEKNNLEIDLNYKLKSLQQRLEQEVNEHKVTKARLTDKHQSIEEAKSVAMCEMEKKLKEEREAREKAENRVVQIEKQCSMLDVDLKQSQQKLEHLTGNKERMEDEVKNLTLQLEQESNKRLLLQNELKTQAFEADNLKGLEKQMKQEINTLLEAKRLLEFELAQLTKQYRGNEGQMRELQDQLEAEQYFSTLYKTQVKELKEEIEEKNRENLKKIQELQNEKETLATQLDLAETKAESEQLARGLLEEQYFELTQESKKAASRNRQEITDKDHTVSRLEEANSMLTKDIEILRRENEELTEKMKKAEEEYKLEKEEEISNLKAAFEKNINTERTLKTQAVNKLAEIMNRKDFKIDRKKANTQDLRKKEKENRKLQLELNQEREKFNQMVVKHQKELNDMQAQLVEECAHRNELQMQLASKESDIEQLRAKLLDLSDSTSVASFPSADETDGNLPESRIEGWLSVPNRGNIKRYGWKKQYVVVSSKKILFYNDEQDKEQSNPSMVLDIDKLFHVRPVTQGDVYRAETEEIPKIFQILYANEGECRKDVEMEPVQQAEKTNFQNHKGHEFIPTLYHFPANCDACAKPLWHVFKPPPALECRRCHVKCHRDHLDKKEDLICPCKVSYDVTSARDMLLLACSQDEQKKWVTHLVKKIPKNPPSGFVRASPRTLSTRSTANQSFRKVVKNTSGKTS
Chain of Phosphorylase b kinase gamma catalytic chain, skeletal muscle/heart isoform (Homo sapiens) (Q16816 whole entry, looked up, canonical isoform): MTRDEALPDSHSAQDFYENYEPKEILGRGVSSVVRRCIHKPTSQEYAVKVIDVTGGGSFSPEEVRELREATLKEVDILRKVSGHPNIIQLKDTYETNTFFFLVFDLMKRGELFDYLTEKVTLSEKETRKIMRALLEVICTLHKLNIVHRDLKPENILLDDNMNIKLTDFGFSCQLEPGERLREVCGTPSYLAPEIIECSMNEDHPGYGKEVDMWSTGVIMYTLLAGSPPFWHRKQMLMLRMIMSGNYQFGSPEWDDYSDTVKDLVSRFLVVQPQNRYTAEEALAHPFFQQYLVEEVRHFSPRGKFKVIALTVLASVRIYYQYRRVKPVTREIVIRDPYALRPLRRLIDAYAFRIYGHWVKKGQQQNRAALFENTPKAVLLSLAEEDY
Chain of Protein kinase C eta type (Homo sapiens) (P24723 whole entry, canonical isoform): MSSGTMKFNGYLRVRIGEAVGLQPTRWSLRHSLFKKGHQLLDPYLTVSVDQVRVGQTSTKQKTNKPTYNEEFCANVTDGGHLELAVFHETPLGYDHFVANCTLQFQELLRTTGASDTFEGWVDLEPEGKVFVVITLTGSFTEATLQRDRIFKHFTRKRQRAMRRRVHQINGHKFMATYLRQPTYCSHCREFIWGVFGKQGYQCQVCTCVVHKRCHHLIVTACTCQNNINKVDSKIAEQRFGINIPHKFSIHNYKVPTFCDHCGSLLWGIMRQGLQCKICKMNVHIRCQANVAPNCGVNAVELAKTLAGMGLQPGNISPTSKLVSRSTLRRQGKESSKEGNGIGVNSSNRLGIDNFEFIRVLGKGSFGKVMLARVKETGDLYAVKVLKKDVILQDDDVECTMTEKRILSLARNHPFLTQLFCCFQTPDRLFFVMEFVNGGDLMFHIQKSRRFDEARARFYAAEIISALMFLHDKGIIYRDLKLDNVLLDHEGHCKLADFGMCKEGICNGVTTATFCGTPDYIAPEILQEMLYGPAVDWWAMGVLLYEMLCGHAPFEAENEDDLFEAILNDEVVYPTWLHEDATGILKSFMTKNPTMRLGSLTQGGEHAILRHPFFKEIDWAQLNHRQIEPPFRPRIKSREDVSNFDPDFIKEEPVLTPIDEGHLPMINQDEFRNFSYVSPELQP
Chain of Serine/threonine-protein kinase 24 (Homo sapiens) (Q9Y6E0 whole entry, looked up, canonical isoform): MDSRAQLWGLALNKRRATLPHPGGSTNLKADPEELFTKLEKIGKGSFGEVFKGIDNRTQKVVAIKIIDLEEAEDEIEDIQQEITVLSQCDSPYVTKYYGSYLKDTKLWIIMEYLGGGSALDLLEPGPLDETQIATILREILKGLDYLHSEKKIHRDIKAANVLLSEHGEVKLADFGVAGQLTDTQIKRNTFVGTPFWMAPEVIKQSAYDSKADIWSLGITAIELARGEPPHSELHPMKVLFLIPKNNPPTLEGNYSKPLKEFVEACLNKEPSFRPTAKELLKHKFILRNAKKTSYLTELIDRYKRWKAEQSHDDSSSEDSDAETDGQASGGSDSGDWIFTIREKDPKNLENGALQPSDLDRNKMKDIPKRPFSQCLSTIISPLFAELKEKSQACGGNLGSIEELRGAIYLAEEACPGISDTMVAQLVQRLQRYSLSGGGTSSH
Chain of Casein kinase I isoform alpha (Homo sapiens) (P48729 2-337 limits assumed): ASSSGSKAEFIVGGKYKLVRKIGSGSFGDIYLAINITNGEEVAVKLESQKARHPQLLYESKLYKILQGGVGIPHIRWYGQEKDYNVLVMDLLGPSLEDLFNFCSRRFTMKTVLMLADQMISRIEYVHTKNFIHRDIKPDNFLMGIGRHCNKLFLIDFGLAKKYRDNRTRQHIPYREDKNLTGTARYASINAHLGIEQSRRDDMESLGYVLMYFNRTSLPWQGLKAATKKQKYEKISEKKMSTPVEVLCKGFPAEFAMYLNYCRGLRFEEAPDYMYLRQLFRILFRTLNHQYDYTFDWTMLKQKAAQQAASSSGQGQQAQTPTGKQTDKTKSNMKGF

One may read the inhibition as the drop in the measured response relative to a control, in per cent. For the molecule `C[C@@]1(C(=O)Nc2ccc(F)nc2)CCCN1c1nc(Nc2cc(C3CC3)n[nH]2)c2cccn2n1`, in experiment [1], the inhibition is 0.77%.

As for `Nc1n[nH]c2nnc(-c3c(-c4ccccc4)nn4ccccc34)cc12`, the inhibition is -1.59% in [2]; -0.45% in experiment [3]; 22.8% in experiment [4]; -0.96% in [5]; 10.5% in experiment [6]; -0.73% in experiment [7]. Besides, the inhibition in experiment [8] is 2.87%; in experiment [9], 2.28%; in experiment [10] it was 25.4%.

With `Oc1n[nH]c2nnc(-c3c(-c4ccccc4)nn4ccccc34)cc12`, the inhibition in experiment [2] was -1.3%; in [3], 3.01%; in experiment [4], 3.76%; in experiment [5] it was -1.18%; in experiment [6], 10.6%; in experiment [7], -3.08%. Moreover, the results for the inhibition in experiment [8], in experiment [9] and in experiment [10] were 0.87%, -2.37% and -2.3%, respectively.

`C[C@]1(O)C[C@@H](c2nc(-c3ccc4ccc(-c5ccccc5)nc4c3)c3c(N)nccn32)C1`: the inhibition in experiment [11] was determined as 4.32%; in experiment [12], 3%; in [13], 1.39%.
